The assay deals with T1, eEF3 (C‐terminally TAP‐tagged, in native eEF3‐80S complex) (Saccharomyces cerevisiae, UniProt P16521).
T1 construct: gene YEF3; final 68 C-terminal residues including tag not modelled
T1 sequence (P16521 2-1044): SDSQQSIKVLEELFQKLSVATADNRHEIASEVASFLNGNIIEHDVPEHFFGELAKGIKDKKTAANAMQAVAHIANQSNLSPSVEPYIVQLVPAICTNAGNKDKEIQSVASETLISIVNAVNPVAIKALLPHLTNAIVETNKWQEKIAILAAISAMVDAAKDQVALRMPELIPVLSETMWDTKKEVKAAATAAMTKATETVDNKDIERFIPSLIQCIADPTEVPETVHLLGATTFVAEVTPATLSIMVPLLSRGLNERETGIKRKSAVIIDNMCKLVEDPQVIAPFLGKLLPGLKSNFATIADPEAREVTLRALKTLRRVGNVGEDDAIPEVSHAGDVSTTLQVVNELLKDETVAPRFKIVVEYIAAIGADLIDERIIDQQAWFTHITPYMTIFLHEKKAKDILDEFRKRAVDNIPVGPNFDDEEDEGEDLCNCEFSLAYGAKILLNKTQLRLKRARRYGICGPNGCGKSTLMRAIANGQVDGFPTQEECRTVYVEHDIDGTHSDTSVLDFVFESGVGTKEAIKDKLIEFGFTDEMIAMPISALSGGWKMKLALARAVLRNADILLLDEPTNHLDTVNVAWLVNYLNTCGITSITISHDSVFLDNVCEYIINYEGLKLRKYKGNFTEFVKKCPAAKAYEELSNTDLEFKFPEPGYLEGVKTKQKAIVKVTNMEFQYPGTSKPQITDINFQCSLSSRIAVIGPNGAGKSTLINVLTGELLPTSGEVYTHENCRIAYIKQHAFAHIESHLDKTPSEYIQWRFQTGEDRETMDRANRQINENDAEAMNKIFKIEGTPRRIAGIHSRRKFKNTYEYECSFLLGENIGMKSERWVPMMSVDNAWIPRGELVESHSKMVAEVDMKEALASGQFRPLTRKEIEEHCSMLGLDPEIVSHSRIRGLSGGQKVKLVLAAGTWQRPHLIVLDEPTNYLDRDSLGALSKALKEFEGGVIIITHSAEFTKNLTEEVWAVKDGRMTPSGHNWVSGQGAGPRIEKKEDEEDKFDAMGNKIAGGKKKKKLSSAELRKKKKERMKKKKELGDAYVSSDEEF
As to the kind of experiment: cryo-EM structure of native eEF3-80S complex ([…] Å). The conditions noted are these: ABC1 and ABC2 nucleotide-binding sites; complex eluted with 1 mM ADPNP, pH 7.4, 10 mM Mg(OAc)2; density assigned by authors as ATP (or ADPNP), identity not resolved.

Regarding `Nc1ncnc2c1ncn2[C@@H]1O[C@H](COP(=O)(O)OP(=O)(O)NP(=O)(O)O)[C@@H](O)[C@H]1O` [ADPNP], the “cryo-EM structure of native eEF3-80S complex (3.3 Å)” value is reported as “electron density consistent with ATP (or ADPNP) was observed in the active sites of ABC1”.

Source of the values: paper PMC7957392, “Yeast translation elongation factor eEF3 promotes late stages of tRNA translocation” (The EMBO Journal, 2021).
